This test has as its system female hooded-Lister rats. Description: Object recognition test (NOR) after sub-chronic PCP. Format: in vivo, rat. The conditions noted are these: for LMA (no. of lines crossed): mean. On the procedure:
60 female hooded-Lister rats (Charles River, UK) were used as subjects for these studies and weighed 248 g±20 g. Rats were allowed at least a 7-day acclimatization period to the animal unit prior to commencement of experimentation. Rats were housed in groups of 5 under standard laboratory conditions under a 12 h light:dark cycle, lights on at 0700 h. All testing was carried out in the light phase. Food and water were freely provided. All experiments were conducted in accordance with the Animals Scientific Procedures Act, U.K. 1986 and were approved by the University of Bradford ethical review panel.
40 mg of test compound was dissolved in 5 ml of 40% hydroxypropyl β-cyclodextrin (HPBC) solution. The solution was sonicated until completely dissolved. 2 ml of sterile water was added and the pH measured and adjusted with NaOH solution (0.1N) to obtain pH ˜4. Finally, sterile water was added to a final volume of 10 ml. This stock solution was then diluted in 20% HPBC to obtain the final concentrations. 100 mg of PQ10 was dissolved in a 40% HPBC solution and 8 mg of tartaric acid. The solution was sonicated until completely dissolved. 5 ml of sterile water was added and the pH measured and adjusted with NaOH solution (0.1N) to obtain pH ˜4. Finally sterile water was added to a final volume of 10 ml.
Test compound was administered at doses of 0.3 and 1.0 mg/kg via the oral route 30 min prior to testing.
PQ10 was administered at a dose of 1.0 mg/kg via the oral route 30 min prior to testing.
Certain pre-clinical tests allow the observation of relatively subtle cognitive deficits in the rat that resemble cognitive symptoms in subjects with schizophrenia. The cognitive deficits observed are seen in behaviours such as episodic memory, which can be measured by recognition tasks such as the novel object recognition (NOR) paradigm. A recognition memory task allows the comparison between presented stimuli and previously stored information. Ennaceur, A Delacour, J (1988) A new one-trial test for neurobiological studies of memory in rats Behav Brain Res 31: 47-59 described the NOR test in rats which was based on the differential exploration of familiar and new objects. The NOR test is a non-rewarded, ethologically relevant paradigm based on the spontaneous exploratory behaviour of rats that measures episodic memory. Each session consists of two trials. In the first trial, the rats are exposed to two identical objects in an open field. During the second trial, rats are exposed to two dissimilar objects, one familiar object from the first trial and one new object. Object recognition in rats can be measured as the difference in time spent exploring the familiar and the new object. […] The duration of each trial is also important as a preference for the novel object only lasts during the first 1 or 2 minutes, after which time preference diminishes as both objects become familiar and are explored equally.
Rats were randomly assigned to the 8 treatment groups
Rats were allowed to habituate to the empty test box and the behavioural test room environment for 1 h on day 1. Prior to behavioural testing on day 2 rats were given a further 3 min habituation.
Following the 3 min habituation period, the rats were given two 3 min trials (T1 and T2) which were separated by a 1 min inter-trial interval in the home cage during which the objects were changed.
In this trial, the animals were allowed to explore two identical objects (A1 and A2) for 3 min.
In this trial, the animals explored a familiar object (A) from T1 and a novel object (B) for 3 min. The familiar object presented during T2 was a duplicate of the object presented in T1 in order to avoid any olfactory trails.
The object exploration was defined by animals licking, sniffing or touching the object with the forepaws whilst sniffing, but not leaning against, turning around, standing or sitting on the object. […]

The results in this text go back to patent US20120220581A1, “IMIDAZO[1,2-b]PYRIDAZINE DERIVATIVES AND THEIR USE AS PDE10 INHIBITORS” (Janssen-Cilag, S.A., priority 2009, published 2012).

As to `COCCc1ccc(-c2c(C)nc3c(N4CCOCC4)ccnn23)cn1` [compound 1, 3-[6-(2-methoxyethyl)-3-pyridinyl]-2-methyl-8-(4-morpholinyl)-imidazo[1,2-b]pyridazine], the “LMA (no. of lines crossed)” value is reported as 56.5 no. of lines crossed (PCP + 0.3 mg/kg p.o.) and 56.4 no. of lines crossed (PCP + 1 mg/kg p.o.). The “effects of acute treatment in the NOR task” value (acute treatment, oral route 30 min prior to testing, compound 1 0.3-1.0 mg/kg, PQ10 1.0 mg/kg, sub-chronic PCP female rats) is given as “selective for the retention phase”.
